Laboratory results published in patent US20060229347A1, “Treatment of eczemas” (Astion Development A/S, priority 2005, published 2006).
Structures can show the parent of a compound that is named as a salt.

What was measured:
[1] = system: oxazolone induced ear inflammation; assay: Oxazolone induced Mouse Ear Oedema Assay; assay type: in vivo, mice; conditions: for % inhibition of ear swelling: 24 hours; for inhibition of the formation of ear oedema: Example 7, 500 μg/ear dissolved in 96% ethanol
Protocol: Screening for Anti-inflammatory Effect in the Oxazolone induced Mouse Ear Oedema Assay. […] This screening method is commonly employed for screening and evaluation of anti-inflammatory drugs, in particular with respect to the inflammation seen in contact dermatitis. Betamethasone-17 valerate was used as the positive control. […] Betamethason was administered topically in quantities of 20 μg/ear. Betamethason was applied in the commercial form Celeston valerate® 0.1%. All groups were immunised with 20 μl oxazolone, 1.6% in ethanol 96% (w/v) on the left and the right ear. The ear thickness of all mice on both the left and right side was measured with an electronic measuring gauge. All groups were challenged with 20 μl oxazolone (1.6% in ethanol 96% (w/v)) on the left ear and the right ear. Vehicle (acetone) or test article solutions were administered 20 minutes before and 20 minutes after oxazolone challenge. 24 hours after oxazolone challenge the ear thickness of all mice was measured with an electronic measuring gauge. Mean thickness of the ears and standard deviations were calculated. Ear swelling was calculated as the difference between the ear thickness day 7 and day 8. […] Differences in ear swelling between the vehicle treated group and the other groups were tested for significance employing a non-parametric statistical method of analysis, the Mann-Whitney U test. The required level of significance was p<0.05. […] Both test articles were applied in a dose of 500 μg/ear and dissolved in 96% ethanol. Betamethason, as the positive control was administered topically in quantities of 20 μg/ear.

Phosphodiesterase PDE IV = Phosphodiesterase PDE IV enzyme inhibition assay (MDS Pharma Service No. 154000); assay type: biochemical; conditions: in comparison to Oxaprozin
Protocol: Trends Pharmacol Sci 1991 January; 12(1):19-27 and in Cortijo J, Bou J, Beleta J, Cardelus I, Llenas J, Morcillo E et al. Investigation into the role of phosphodiesterase IV in bronchorelaxation, including studies with human bronchus. Br J Pharmacol 1993 February; 108(2):562-8. The inhibitory activity of Phosphodiesterase PDE IV may be determined at MDS Pharma Service using test method number 154000.
(§1) The enzyme assays were conducted by MSD Pharma Services.

[2] = molecular target: T1, Protein Tyrosine Kinase, ZA70 (ZAP-70) (Homo sapiens, UniProt P43403); assay: Protein Tyrosine Kinase ZA70 (ZAP-70) enzyme inhibition assay (MDS Pharma Service No. 155987); assay type: biochemical; conditions: in comparison to Oxaprozin
T1 construct: purchased MDS Pharma Service (contract assay) 155987
T1 sequence (P43403 1-619): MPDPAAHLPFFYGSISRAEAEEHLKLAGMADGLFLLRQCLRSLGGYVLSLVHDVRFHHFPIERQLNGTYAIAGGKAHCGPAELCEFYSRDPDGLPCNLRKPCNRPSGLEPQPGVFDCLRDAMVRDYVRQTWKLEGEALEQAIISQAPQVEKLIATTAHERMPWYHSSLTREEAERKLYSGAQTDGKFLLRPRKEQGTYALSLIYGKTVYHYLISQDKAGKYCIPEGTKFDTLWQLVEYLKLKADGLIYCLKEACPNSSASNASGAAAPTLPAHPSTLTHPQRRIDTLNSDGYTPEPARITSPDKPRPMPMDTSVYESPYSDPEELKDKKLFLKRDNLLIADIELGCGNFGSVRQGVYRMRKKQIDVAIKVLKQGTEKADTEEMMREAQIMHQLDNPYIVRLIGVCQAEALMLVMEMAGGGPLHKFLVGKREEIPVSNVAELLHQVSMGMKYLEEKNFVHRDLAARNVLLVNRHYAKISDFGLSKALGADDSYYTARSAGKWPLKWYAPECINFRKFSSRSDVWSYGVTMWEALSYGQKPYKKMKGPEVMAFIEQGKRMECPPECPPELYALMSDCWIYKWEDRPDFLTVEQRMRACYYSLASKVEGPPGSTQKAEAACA
Description: The term “an inhibitor of Protein tyrosine kinase ZAP-70” refers to any agent that inhibits the catalytic activity of the Protein tyrosine kinase ZAP-70 in vitro as may be determined using a method described in Huckle W R, Dy R C, Earp H S. Calcium-dependent increase in tyrosine kinase activity stimulated by angiotensin II. Proc Natl Acad Sci USA 1992 Sep. 15; 89(18):8837-41 and in Isakov N, Wange R L, Watts J D, Aebersold R, Samelson L E. Purification and characterization of human ZAP-70 protein-tyrosine kinase from a baculovirus expression system. J Biol Chem 1996 Jun. 28; 271(26):15753-61. The inhibitory activity of Protein Tyrosine Kinase ZAP may be determined at MDS Pharma Service using test method number 155987.
as §1

[3] = molecular target: T2, Protein Tyrosine Kinase, SYK (Homo sapiens, UniProt P43405); assay: Protein Tyrosine Kinase SYK enzyme inhibition assay (MDS Pharma Service No. 155761); assay type: biochemical; conditions: in comparison to Oxaprozin
T2 construct: purchased MDS Pharma Service (contract assay) 155761
Description: The term “an inhibitor of Protein tyrosine kinase Syk” refers to any agent that inhibits the catalytic activity of Protein tyrosine kinase Syk in vitro. Such in vitro assays are described in Shichijo M, Yamamoto N, Tsujishita H, Kimata M, Nagai H, Kokubo T. Inhibition of syk activity and degranulation of human mast cells by flavonoids. Biol Pharm Bull 2003 December; 26(12):1685-90 and in Zhang J, Berenstein E, Siraganian R P. Phosphorylation of Tyr342 in the linker region of Syk is critical for Fc epsilon RI signalling in mast cells. Mol Cell Biol 2002 December; 22(23):8144-54. The inhibitory activity of Protein Tyrosine Kinase SYK may be determined at MDS Pharma Service using test method number 155761.
as §1

skin = conditions: guinea pig, in vivo
Protocol: 17th, 1992, and the test method B.6 of the 96/54 E.E.C Directive.
Albino guinea pigs of Dunkin-Hartley strain were exposed to the test item after an acclimatisation period of at least five days.
The Maximum Non Necrotizing Concentration (M.N.N.C.) was determined by injecting by intradermal route the following concentrations: 2.5%, 1.25%, 0.625%, 0.3125%, 0.1562% and 0.078% diluted in physiological saline solution.
Pre-Maximum Non Irritant Concentration (pre-M.N.I.C.) was determined by application of the test item under an occlusive dressing during 24 hours, at the following concentrations: 2.5%, 1.25%, 0.625%, 0.3125% diluted in physiological saline solution.
Maximum Non Irritant Concentration (M.N.I.C.) was determined by initially establishing an induction phase by intradermal injection with a physiological saline solution and by topical application of distilled water followed by a 18-day rest phase. In the challenge phase where the test item is under occlusive dressing for 24 hours, the test item was applied to the skin of the Albino guinea pigs at the following concentrations: 2.5%, 1.25%, 0.625%, 0.3125% diluted in physiological saline solution.

undamaged skin = assay: Acute dermal irritation; assay type: in vivo; conditions: monoethanolamine salt 5% by weight in water, 0.5 mL patch; reading time 1 hour
Protocol: The sample was applied at a dose of 0.5 mL, on an undamaged skin area of the right flank of each animal. The patch was secured in position with a strip of surgical adhesive tape.
On the left flank an untreated area served as the control.
The skin reactions were evaluated after 1 hour and then after 24, 48 and 72 hours following removal of the patch according to the following grading scale:
Erythema (0: No erythema, 1: Slight(barelyperceptible)erythema, 2: Definite erythema, 3: Moderate to severe erythema, 4: Severe erythema (purple) with formation of eschars (deep lesions) preventing erythema from being grading).
Oedema (0: No oedema, 1: Very slight (barely perceptible) oedema, 2: Slight oedema (contour clearly defined), 3: Moderate oedema (thickness), 4: Severe oedema (thickness greater than 1 mm, surface larger than zone of application)

In the case of `CCCCC(=O)O[C@]1(C(=O)CO)[C@@H](C)C[C@H]2[C@@H]3CCC4=CC(=O)C=C[C@]4(C)[C@@]3(F)[C@@H](O)C[C@@]21C` [Betamethasone 17-valerate], the “% inhibition of ear swelling” value ([1]; 20 μg/ear topical, Celeston valerate 0.1%) is reported as 66%.

`CCCCOc1ccc(CC(=O)NO)cc1` [Bufexamac] was tested, and the “inhibitory effect on the PDE-IV enzyme” value (Phosphodiesterase PDE IV) was “exhibits inhibitory effect”, the “inhibition of the formation of ear oedema” value [1] was “did not inhibit the formation of ear oedema at all” and the “inhibitory effect on Protein Tyrosine Kinase ZAP-70” value [2] was “only exhibits inhibitory effect on the PDE-IV enzyme”. The “inhibitory effect on Protein Tyrosine Kinase SYK” value [3] was “only exhibits inhibitory effect on the PDE-IV enzyme”.

With `O=C(O)CCc1nc(-c2ccccc2)c(-c2ccccc2)o1` [Oxaprozin monoethanolamine salt] the “skin sensitization (cutaneous reactions attributable to allergy)” value (skin) was “not causing sensitization reactions”, the “% inhibition of ear swelling” value ([1]; 250 μg/ear topical in acetone, 20 min before and after oxazolone challenge) was 53% and the “% inhibition of ear swelling” value ([1]; 500 μg/ear topical in acetone, 20 min before and after oxazolone challenge) was 77%. The “% inhibition of ear swelling” value ([1]; 1000 μg/ear topical in acetone, 20 min before and after oxazolone challenge) was 95%, the “inhibition of ear swelling (conclusion)” value ([1]; 250-1000 μg/ear) was “dose dependent and highly significant inhibition of ear swelling” and the “inhibition of ear swelling compared with Betamethasone 17-valerate” value ([1]; highest dose (1000 μg/ear) vs Betamethasone 17-valerate 20 μg/ear) was “significantly stronger”.

With `O=C(O)CCc1nc(-c2ccccc2)c(-c2ccccc2)o1` [Oxaprozin, 4,5-diphenyl-2-oxazole-propionic acid] the “cutaneous reactions (erythema)” value (undamaged skin) was “slight erythema” and the “inhibition of the formation of ear oedema” value [1] was “statistically significant inhibition of the formation of ear oedema”.
